Laboratory results taken from patent publication US20250144039A1, “COMPOSITIONS COMPRISING SURFACE MODIFIED GLOBULAR NANO-PARTICLES” (LANDA LABS (2012) LTD., priority 2022, published 2025).

Tests used:
skin of pigs' ears = test: Ex vivo penetration of composition into skin of pigs' ears (fluorescent marker histology); assay type: in vitro ADME; conditions: Nile red marker; pig ear skin, 20 hours at 32° C.
Description: The distribution of nano-elements of the present compositions in various skin layers was tested ex vivo by applying core-shell and core-multi-shells (including a second shell forming active agent) nano-elements onto the skin of pigs' ears, the cores of the tested compositions including a fluorescent dye (Nile red) allowing histological monitoring.
The following test and control compositions were prepared and used as set in Table 9.
Tested compositions (2) and (3) were prepared by adding 2 mg of Nile red fluorescent marker during the preparation of the CSSC/fatty amine premix, as described in Example 6. All tested compositions were stored in closed containers at room temperature until they were used.
The compositions were tested on three freshly harvested pig ears, collected on the same day, and kept fresh and cooled till use. The ears were washed with excess saline solution and wiped dry. They were then immobilized for the duration of the study by taping them onto a glass surface, their inner side facing down. Each ear was marked on its outer side with 6 circles having a diameter of about 1 cm. […]
The above tissue sections were evaluated by an expert for the presence and intensity of the marker using a fluorescence microscope at objective magnification of ×10 and ×20.

[1] = Zeta potential measurement (Malvern Zetasizer Nano ZS); assay type: physicochemical; conditions: 0.1 g dispersed in 9.9 g of distilled water
Description: • Oven: DFO-240, by MRC, Israel • Thermo-rheometer: Thermo Scientific (Germany) Haake Mars III, with a C20/1° spindle, a gap of 0.052 mm, and a shear rate of 10 sec^−1 • Sonicator: VCX 750, by Sonics & Materials, USA • Dynamic Light Scattering and Zeta Potential measurement: Malvern Zetasizer Nano ZS, Malvern Instruments Ltd., UK • Conductivity meter: Eutech CON 700 by Thermo Fisher Scientific, USA • CryoTEM: Talos 200C by Thermo Fisher Scientific, USA, with a Lacey grid • Fluorescence microscope: BX60 microscope, equipped with a digital camera model DP73, by Olympus, Japan
8 g of double distilled water were placed in a 20 ml glass vial. 2 g of the nano-dispersion ND1 obtained in Example 2 were added, and the contents of the vial were shaken by hand for about 10 seconds until a homogeneous mixture was obtained (referred to as charged ND1 or cND1). Zeta potential of the mixture was measured by Malvern Zetasizer Nano ZS and found to be −14.7 mV. Unless otherwise stated, all measurements made with this instrument (e.g., zeta potential and particle size distribution) were performed on samples diluted 1:100 in double distilled water. All pH measurements reported in this and following examples were made at least using a pH test strip adapted to the pH range of relevance, and confirmed in some cases by using a suitable pH meter.

| Zeta potential of active agent alone [1] [mV] | Compound | penetration into skin layers (fluorescence microscopy) (skin of pigs' ears) |
| --- | --- | --- |
|  | CCN(CC)c1ccc2nc3c4ccccc4c(=O)cc-3oc2c1 [Nile red, 9-(diethylamino)-5H-benzo[a]phenoxazin-5-one] | No penetration of the fluorescent marker was observed |
| −17 | Sodium hyaluronate [LMW HA] |  |
